The values below come from patent US10730884B2, “Substituted indole compound derivatives as dengue viral replication inhibitors” (Janssen Pharmaceuticals, Inc., priority 2016, dated 2020).

Where two headings read alike, the source gives them in different places.

For one data set, the system named is DENV-2 16681 strain. In words: DENV-2 antiviral assay (eGFP-labeled virus, Vero cells). In kind it is cell-based, Dengue virus. The conditions noted are these: for EC50: DENV-2 16681 eGFP, Vero cells, MOI 0.5, 3 days; for SI: SI=CC50/EC50, DENV-2 antiviral assay. Put shortly: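 Vero cells (2500/well) pre-plated with compound (9-step 5-fold series), infected next day with eGFP-labeled DENV-2 16681 at MOI 0.5 in MEM with 2% FCS; 3 days at 37° C. eGFP fluorescence read at 488 nm; inhibition versus virus and cell controls, EC50 by linear interpolation.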

Data set [1] is described as follows: in vitro. The conditions noted are these: African green monkey.
The test system of the next data set is DENV-2. The conditions noted are these: analogous DENV-2 antiviral assay, reported activity; cited from earlier work.
The test system of a further data set is DENV-3 strain H87. Briefly: Tetravalent RT-qPCR assay, serotype 3. Type of data set: cell-based, Dengue virus. Put shortly:
(§1)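 Vero cells (10000/well, MEM with 2% FCS) seeded on compound, incubated overnight, then infected with the given DENV serotype strain, diluted to give Cp ~22-24, for 3 days at 37 °C. Duplex RT-qPCR of viral 3′UTR and β-actin; EC50 by ΔΔCp normalised to β-actin, CC50 from β-actin Cp.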

A further data set deals with DENV-4 strain H241. Briefly: Tetravalent RT-qPCR assay, serotype 4. In kind it is cell-based, Dengue virus. The essentials:
as §1

Data set [2] concerns Vero cells. In words: in vitro. Type of data set: cell-based. The conditions noted are these: African green monkey, 3 days. As to the method:
(§2) The antiviral activity of the compounds of the invention was tested against DENV-1 strain TC974#666 (NCPV), DENV-2 strain 16681, DENV-3 strain H87 (NCPV) and DENV-4 strain H241 (NCPV) in a RT-qPCR assay. Therefore, Vero cells were infected with either DENV-1, or -2, or -3, or -4 in the presence or absence of test compounds. At day 3 post-infection, the cells were lysed and cell lysates were used to prepare cDNA of both a viral target (the 3′UTR of DENV; Table 2) and a cellular reference gene (β-actin, Table 2). Subsequently, a duplex real time PCR was performed on a Lightcycler480 instrument. The generated Cp value is inversely proportional to the amount of RNA expression of these targets. Inhibition of DENV replication by a test compound result in a shift of Cp's for the 3′UTR gene. On the other hand, if a test compound is toxic to the cells, a similar effect on β-actin expression will be observed. The comparative ΔΔCp method is used to calculate EC50, which is based on the relative gene expression of the target gene (3′UTR) normalized with the cellular housekeeping gene (β-actin). In addition, CC50 values are determined based on the Cp values acquired for the housekeeping gene β-actin.
(§3) The culture medium consisted of minimal essential medium supplemented with 2% of heat-inactivated fetal calf serum, 0.04% gentamycin (50 mg/mL) and 2 mM of L-glutamine. Vero cells, obtained from ECACC, were suspended in culture medium and 75 μL/well was added in 96-well plates (10000 cells/well), which already contain the antiviral compounds. […] In addition, each plate contains wells which are assigned as virus controls (containing cells and virus in the absence of compound) and cell controls (containing cells in the absence of virus and compound). Once the cells were added in the plates, the plates were incubated in a fully humidified incubator (37° C., 5% CO2) until the next day. Dengue viruses serotype-1, 2, 3 and 4 were diluted in order to obtain a Cp of ˜22-24 in the assay. Therefore, 25 μL of virus suspension was added to all the wells containing test compound and to the wells assigned as virus control. In parallel, 25 μL of culture medium was added to the cell controls. Next, the plates were incubated for 3 days in a fully humidified incubator (37° C., 5% CO2). After 3 days, the supernatant was removed from the wells and the cells were washed twice with ice-cold PBS (˜100 μL). The cell pellets within the 96-well plates were stored at −80° C. for at least 1 day. Next, RNA was extracted using the Cells-to-CT™ lysis kit, according to the manufacturer's guideline (Life Technologies). The cell lysates can be stored at −80° C. or immediately used in the reverse transcription step.
(§4) Using the LightCycler software and an in-house LIMS system, dose response curves for each compound were calculated and the half maximal effective concentration (EC50) and the half maximal cytotoxic concentration (CC50) were determined (Tables 5-8).

Data set [3] can be described thus: in vitro. Type of data set: cell-based. The conditions noted are these: African green monkey, CC50. As to the method: as §2, §3, §4
For a further data set, the system named is DENV-2 strain 16681. In words: Tetravalent RT-qPCR assay, serotype 2. In kind it is cell-based, Dengue virus. The essentials: as §1
The subject of the next data set is DENV-1 strain TC974#666. Briefly: Tetravalent RT-qPCR assay, serotype 1. Type of data set: cell-based, Dengue virus. Put shortly:
as §1

Data set [4] deals with Vero cells. The conditions noted are these: African green monkey.
[5] abbreviates: Dengue virus, DENV2, Vero, 72 h.

`COc1cc(NC(C(=O)c2c[nH]c3c(C)cc(Cl)cc23)c2ccc(F)cc2OC)cc(OCCO)c1` (racemic) [Compound 1, 1-(5-chloro-7-methyl-1H-indol-3-yl)-2-(4-fluoro-2-methoxyphenyl)-2-((3-(2-hydroxyethoxy)-5-methoxyphenyl)amino)ethanone]: the melting point was 118 °C. A half-maximal response in the data set with DENV-2 16681 strain (setting [5]) (EC50) required 2.7 nM. In addition, the SI in the data set with DENV-2 16681 strain was found to be 1800. Besides, in “in vitro [1]”, the CC50 was 4900 nM.
In turn, `COc1cc(NC(C(=O)c2c[nH]c3cc(F)c(C)cc23)c2ccc(Cl)cc2OC)cc(OCCO)c1` (racemic) [Compound 9, 2-(4-chloro-2-methoxyphenyl)-1-(6-fluoro-5-methyl-1H-indol-3-yl)-2-((3-(2-hydroxyethoxy)-5-methoxyphenyl)amino)ethanone] displayed a melting point of 177 °C. Also, in the data set on DENV-2 16681 strain (setting [5]), the response was half-maximal at 1.2 nM (EC50). Moreover, the SI in the data set with DENV-2 16681 strain is listed as 2480. Further, the CC50 in “in vitro [1]” was 3100 nM.
In turn, `COc1cc(NC(C(=O)c2c[nH]c3cc(OC)c(Cl)cc23)c2ccc(F)cc2OC)cc(OCCO)c1` (racemic) [Compound 2, 1-(5-chloro-6-methoxy-1H-indol-3-yl)-2-(4-fluoro-2-methoxyphenyl)-2-((3-(2-hydroxyethoxy)-5-methoxyphenyl)amino)ethanone] returned a melting point of 210 °C. The compound further displayed a concentration for a half-maximal effect (EC50) with DENV-2 16681 strain (setting [5]) of 1.5 nM. Also, in the data set on DENV-2 16681 strain, the SI turned out to be 4410. In addition, in the data set “in vitro [1]”, the CC50 was 6700 nM.
On to `COc1cc(NC(C(=O)c2c[nH]c3ccccc23)c2ccc(F)cc2)cc(OCCO)c1` (stereo not shown) [(350) of WO-2013/045516], for which, in the data set on DENV-2, the concentration for a half-maximal effect (EC50) was 10 nM and the SI is recorded as 3462.
For `COc1cc(NC(C(=O)c2c[nH]c3cc(OC)c(C)c(F)c23)c2ccc(Cl)cc2OC)cc(OCCO)c1` (single isomer, unassigned) [Compound 12B], the 50% effective concentration (EC50) in the data set on DENV-3 strain H87 (Dengue virus, DENV3, Vero, 72 h, RT-qPCR serotype 3 H87, Protocol A, Vero cells, day 3, read-out: EC50) worked out at 20 nM; in the data set on DENV-2 16681 strain it was 0.26 nM; in the data set with DENV-4 strain H241 (Dengue virus, DENV4, Vero, 72 h, RT-qPCR serotype 4 H241, Protocol A, Vero cells, day 3) it was 180 nM; with DENV-2 strain 16681 (Dengue virus, DENV2, Vero, 72 h, RT-qPCR serotype 2 16681, Protocol A, Vero cells, day 3), 0.25 nM; in the data set with DENV-1 strain TC974#666 (Dengue virus, DENV1, Vero, 72 h, RT-qPCR serotype 1 TC974#666, Protocol A, Vero cells, day 3, read-out: EC50), 4.9 nM. Also, the SI is given as above 106 with DENV-3 strain H87 (RT-qPCR serotype 3 H87); above 48400 in the data set with DENV-2 16681 strain; above 15 with DENV-4 strain H241 (RT-qPCR serotype 4 H241); above 12200 in the data set with DENV-2 strain 16681 (RT-qPCR serotype 2 16681); above 508 with DENV-1 strain TC974#666 (RT-qPCR serotype 1 TC974#666). Also, the CC50 with Vero cells [2] was above 2500 nM; in the data set with Vero cells [4], 4600 nM. Moreover, the CC50 at 3 days in the data set “in vitro [3]” was above 2200 nM.
Compound `COc1cc(NC(C(=O)c2c[nH]c3cc(F)c(C)cc23)c2ccc(F)cc2OC)cc(OCCO)c1` (racemic) [Compound 3, 2-(4-fluoro-2-methoxyphenyl)-1-(6-fluoro-5-methyl-1H-indol-3-yl)-2-((3-(2-hydroxyethoxy)-5-methoxyphenyl)amino)ethanone] came in with a melting point of 197 °C. Moreover, the concentration for a half-maximal effect (EC50) with DENV-2 16681 strain (setting [5]) amounted to 3.5 nM. The compound further displayed an SI with DENV-2 16681 strain of 1140. Moreover, the CC50 in the data set “in vitro [1]” was found to be 4000 nM.
